Measurements reported in patent publication US20250051347A1, “BIFUNCTIONAL CHIMERIC HETEROCYCLIC COMPOUND AND USE THEREOF AS ANDROGEN RECEPTOR DEGRADER” (Hinova Pharmaceuticals, Inc., priority 2021, published 2025).

target: T1, androgen receptor (AR) splicing variant AR-v7 (Homo sapiens, UniProt P10275); test: Degradation activity on androgen receptor splicing variant AR-v7 in 22RV1 cells (ELISA); assay type: cell-based; settings: AR-v7 degradation in 22RV1 cells, 48 h, class symbols
T1 construct: The degradation activity of compounds on AR-v7 in 22RV1 cells; host or cells: 22RV1 cells
T1 sequence (P10275 1-644 isoform P10275-3): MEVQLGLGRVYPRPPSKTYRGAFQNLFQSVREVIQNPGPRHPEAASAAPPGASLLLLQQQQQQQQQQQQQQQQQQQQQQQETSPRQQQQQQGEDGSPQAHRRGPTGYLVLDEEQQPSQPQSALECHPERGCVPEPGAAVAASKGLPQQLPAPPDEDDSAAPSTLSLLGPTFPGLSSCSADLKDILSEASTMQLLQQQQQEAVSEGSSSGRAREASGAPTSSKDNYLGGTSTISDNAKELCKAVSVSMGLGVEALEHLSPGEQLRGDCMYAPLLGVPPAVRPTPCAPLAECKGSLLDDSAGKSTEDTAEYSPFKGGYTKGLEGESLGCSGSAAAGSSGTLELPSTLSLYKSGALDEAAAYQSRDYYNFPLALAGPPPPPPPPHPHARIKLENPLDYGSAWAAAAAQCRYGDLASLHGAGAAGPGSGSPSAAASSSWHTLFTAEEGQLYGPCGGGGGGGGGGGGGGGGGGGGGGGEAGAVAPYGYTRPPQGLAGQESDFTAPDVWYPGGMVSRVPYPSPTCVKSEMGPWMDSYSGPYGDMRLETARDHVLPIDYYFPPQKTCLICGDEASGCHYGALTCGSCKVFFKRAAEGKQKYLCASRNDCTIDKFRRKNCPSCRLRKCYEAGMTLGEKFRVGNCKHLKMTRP
Method: The degradation activity of the compound of the present invention on the androgen receptor splicing variant AR-V7 was analyzed using enzyme-linked immunosorbent assay (ELISA).
The plate was cultured in a 5% CO2 cell incubator at 37° C. for 2 days until the cells adhered to the wall. • 2) The drug was prepared into 10 mM stock solution with dimethylsulfoxide (DMSO). […] The plate was gently shaken and mixed. In addition, negative control wells (only containing culture medium) and positive control wells (only containing cells and DMSO) were set. • 3) After the cells were cultured in an incubator for 48 h, the medium was removed and the cells were rinsed once with ice cold PBS. Then, ice-cold 1× cell lysis buffer was added to each well of the cell culture plate. After the plate was incubated on ice for 15 min, the plate was tapped to mix. • 4) The supernatant of the cell lysate was transferred from the cell culture plate to a […] plate for ELISA. • 5) The newly prepared Capture antibody (green) was mixed with the newly prepared HRP-labeled antibody (red), and then the antibody mixture was added to the above 96-well ELISA plate. • 6) The ELISA plate was sealed with plastic film, and then incubated in a 25° C. incubator for 1 h. • 7) The washing buffer was added to each well, and then TMB substrate was added to each well of the ELISA plate. Subsequently, the plate was cultured in an incubator at 37° C. for 5 min. • 8) 100 μl of stop solution was added to each well of the ELISA plate, and the plate was gently tapped for several seconds. The absorbance was read at 450 nm within 30 min. The data were analyzed by the Dose-response equation in the software GraphPad Prism8, to obtain DC50 and Dmax values.

Row | SMILES | DC50 [nM]
1 | CC(C)(c1ccc(Oc2ncnc(N3CC(N4CCC4)C3)c2F)cc1)c1ccc(O[C@H]2C[C@@H](Nc3ccc4c(c3)C(=O)N(C3CCC(=O)NC3=O)C4=O)C2)cc1 (stereo partly shown) [Example 575] | 11 to 100
2 | CC(C)(c1ccc(Oc2cnc(N)nn2)cc1)c1ccc(O[C@H]2C[C@H](Nc3ccc4c(c3)C(=O)N(C3CCC(=O)NC3=O)C4=O)C2)cc1 (stereo partly shown) [Example 215] | 11 to 100
3 | CC(C)(c1ccc(Oc2ccc(-n3cccn3)nc2)cc1)c1ccc(O[C@H]2C[C@H](Nc3ccc4c(c3)C(=O)N(C3CCC(=O)NC3=O)C4=O)C2)cc1 (stereo partly shown) [Example 208] | 11 to 100
4 | CC(C)(c1ccc(OCc2nc(-n3nccn3)ccc2F)cc1)c1ccc(O[C@H]2C[C@H](Nc3ccc4c(c3)C(=O)N(C3CCC(=O)NC3=O)C4=O)C2)cc1 (stereo partly shown) [Example 284] | 11 to 100
5 | CC(O)c1ccc(Oc2ccc(C(C)(C)c3ccc(O[C@H]4C[C@@H](Nc5ccc6c(c5)C(=O)N(C5CCC(=O)NC5=O)C6=O)C4)cc3)cc2)cn1 (stereo partly shown) [Example 524] | 11 to 100
6 | CC(C)(c1ccc(OCCCCCCCCOCCCCNc2ccc3c(c2)C(=O)N(C2CCC(=O)NC2=O)C3=O)cc1)c1ccc(OCc2cnc(NS(C)(=O)=O)nc2)cc1 (stereo not shown) [Example 51] | 101 to 1000
7 | Cc1nnc(-c2ccc(Oc3ccc(C(C)(C)c4ccc(O[C@H]5C[C@H](Nc6ccc7c(c6)C(=O)N(C6CCC(=O)NC6=O)C7=O)C5)cc4)cc3)nc2)o1 (stereo partly shown) [Example 216] | 11 to 100

The next lines start with the values.

Row | DC50 [nM] | SMILES
8 | 1000 to 5000 | CC(C)(c1ccc(OCCCOc2ccc3c(c2)C(=O)N(C2CCC(=O)NC2=O)C3=O)cc1)c1ccc(OCc2ccnc(N3CC4(COC4)C3)n2)cc1 (stereo not shown) [Example 113, 5-(3-(4-(2-(4-((2-(2-oxa-6-azaspiro[3.3]heptan-6-yl)pyrimidin-4-yl)methoxy)phenyl)propan-2-yl)phenoxy)propoxy)-2-(2,6-dioxopiperidin-3-yl)isoindolin-1,3-dione]
9 | 1000 to 5000 | CC(C)(c1ccc(OCCNc2cccc3c2C(=O)N(C2CCC(=O)NC2=O)C3=O)cc1)c1ccc(OCc2ccnc(NS(C)(=O)=O)n2)cc1 (stereo not shown) [Example 53, N-(4-((4-(2-(4-(2-((2-(2,6-dioxopiperidin-3-yl)-1,3-dioxoisoindolin-4-yl)amino)ethoxy)phenyl)isopropan-2-yl)phenoxy)methyl)pyrimidin-2-yl)methanesulfonamide]
10 | 11 to 100 | CCN1CC(Oc2nccc(COc3ccc(C(C)(C)c4ccc(O[C@H]5C[C@@H](Nc6ccc7c(c6)C(=O)N(C6CCC(=O)NC6=O)C7=O)C5)cc4)cc3)n2)C1 (stereo partly shown) [Example 466]
11 | 11 to 100 | CCNC(=O)c1nccc(COc2ccc(C(C)(C)c3ccc(OC4CC(Nc5ccc6c(c5)C(=O)N(C5CCC(=O)NC5=O)C6=O)C4)cc3)cc2)n1 (stereo not shown) [Example 531]
12 | 11 to 100 | CC(C)[C@@H](COc1ccc(C(C)(C)c2ccc(OCc3ccnc(N4CC5(COC5)C4)n3)cc2)cc1)Nc1ccc2c(c1)C(=O)N(C1CCC(=O)NC1=O)C2=O (stereo partly shown) [Example 150]
13 | 1000 to 5000 | CC(C)(c1ccc(OCCCOCCCOCCCNc2ccc3c(c2)C(=O)N(C2CCC(=O)NC2=O)C3=O)cc1)c1ccc(OCc2ccnc(NS(C)(=O)=O)n2)cc1 (stereo not shown) [Example 20, N-(4-((4-(2-(4-(3-(3-(3-((2-(2,6-dioxopiperidin-3-yl)-1,3-dioxoisoindolin-5-yl)amino)propoxy)propoxy)propoxy)phenyl)propan-2-yl)phenoxy)methyl)pyrimidin-2-yl)methanesulfonamide]
14 | 11 to 100 | CC(C)(c1ccc(OCCCNc2ccc3c(c2)C(=O)N(C2CCC(=O)NC2=O)C3=O)cc1)c1ccc(OCc2ccnc(-n3cccn3)n2)cc1 (stereo not shown) [Example 387, 5-((3-(4-(2-(4-((2-(1H-pyrazol-1-yl)pyrimidin-4-yl)methoxy)phenyl)propan-2-yl)phenoxy)propyl)amino)-2-(2,6-dioxopiperidin-3-yl)isoindol-1,3-dione]
15 | 1000 to 5000 | CC(C)(c1ccc(OCc2ccnc(N3CC4(COC4)C3)n2)cc1)c1ccc(OC2CCN(Cc3ccc4c(c3)C(=O)N(C3CCC(=O)NC3=O)C4=O)CC2)cc1 (stereo not shown) [Example 147, 5-((4-(4-(2-(4-((2-(2-oxa-6-azaspiro[3.3]heptan-6-yl)pyrimidin-4-yl)methoxy)phenyl)propan-2-yl)phenoxy)piperidin-1-yl)methyl)-2-(2,6-dioxopiperidin-3-yl)isoindolin-1,3-dione]
16 | 11 to 100 | CC(=O)c1nccc(COc2ccc(C(C)(C)c3ccc(N4CC5(C4)CN(c4ccc6c(c4)C(=O)N(C4CCC(=O)NC4=O)C6=O)C5)cc3)cc2)n1 (stereo not shown) [Example 488]
17 | 11 to 100 | CC(C)(c1ccc(Oc2ncc(I)cn2)cc1)c1ccc(O[C@H]2C[C@@H](Nc3ccc4c(c3)C(=O)N(C3CCC(=O)NC3=O)C4=O)C2)cc1 (stereo partly shown) [Example 316]
18 | 11 to 100 | CC(C)(c1ccc(OCc2ccnc(N3CCC4(CC3)COC4)n2)cc1)c1ccc(OC2CC(Nc3ccc4c(c3)C(=O)N(C3CCC(=O)NC3=O)C4=O)C2)cc1 (stereo not shown) [Example 78, 5-((3-(4-(2-(4-((2-(2-oxa-7-azaspiro[3.5]nonan-7-yl)pyrimidin-4-yl)methoxy)phenyl)propan-2-yl)phenoxy)cyclobutyl)amino)-2-(2,6-dioxopiperidin-3-yl)isoindolin-1,3-dione]
19 | 11 to 100 | C[C@@H]1CN[C@@H](C)CN1c1nccc(COc2ccc(C(C)(C)c3ccc(O[C@H]4C[C@@H](Nc5ccc6c(c5)C(=O)N(C5CCC(=O)NC5=O)C6=O)C4)cc3)cc2)n1 (stereo partly shown) [Example 411]
20 | 101 to 1000 | CC(C)(c1ccc(CCNc2ccc3c(c2)C(=O)N(C2CCC(=O)NC2=O)C3=O)cc1)c1ccc(OCc2ccnc(N3CC4(COC4)C3)n2)cc1 (stereo not shown) [Example 318, 5-((4-(2-(4-((2-(2-oxa-6-azaspiro[3.3]heptan-6-yl)pyrimidin-4-yl)methoxy)phenyl)propan-2-yl)phenylethyl)amino)-2-(2,6-dioxopiperidin-3-yl)isoindolin-1,3-dione]

same assay, conditions: AR-v7 degradation in 22RV1 cells, 48 h, numeric values

Row | SMILES | DC50 [nM]
21 | CC(C)(c1ccc(OCCCCCCCCOCCCCNc2ccc3c(c2)C(=O)N(C2CCC(=O)NC2=O)C3=O)cc1)c1ccc(OCc2ccnc(Nc3ncco3)n2)cc1 (stereo not shown) [Example 226] | > 10000
22 | CC(C)(c1ccc(OCCCCCCN2CCC(CN3CCN(c4ccc5c(c4)C(=O)N(C4CCC(=O)NC4=O)C5=O)CC3)CC2)cc1)c1ccc(OCc2ccnc(NS(C)(=O)=O)n2)cc1 (stereo not shown) [Example 6] | 6330
23 | CC(=O)c1nccc(COc2ccc(C(C)(C)c3ccc(OCCCCCCCCOCC4CN(c5ccc6c(c5)C(=O)N(C5CCC(=O)NC5=O)C6=O)C4)cc3)cc2)n1 (stereo not shown) [Example 298] | > 10000
24 | C=CC(=O)Nc1nccc(COc2ccc(C(C)(C)c3ccc(OCCCCCCCCOCCN4CCN(c5ccc6c(c5)C(=O)N(C5CCC(=O)NC5=O)C6=O)CC4)cc3)cc2)n1 (stereo not shown) [Example 227] | > 10000
25 | CC(C)(c1ccc(OCCCCCCCCOCCCCNc2ccc3c(c2)C(=O)N(C2CCC(=O)NC2=O)C3=O)cc1)c1ccc(OCc2ccnc(-n3cccn3)n2)cc1 (stereo not shown) [Example 437, 5-((4-((8-(4-(2-(4-((2-(1H-pyrazol-1-yl)pyrimidin-4-yl)methoxy)phenyl)propan-2-yl)phenoxy)octyl)oxy)butyl)amino)-2-(2,6-dioxopiperidin-3-yl)isoindolin-1,3-dione] | > 10000

Further lines, results first:

Row | DC50 [nM] | SMILES
26 | > 10000 | CC(C)(c1ccc(OCCCOCCCNc2ccc3c(c2)C(=O)N(C2CCC(=O)NC2=O)C3=O)cc1)c1ccc(OCc2ccnc(NS(C)(=O)=O)n2)cc1 (stereo not shown) [Example 18]
27 | > 10000 | CC(=O)c1nccc(COc2ccc(C(C)(C)c3ccc(OCC4CCN(c5ccc6c(c5)C(=O)N(C5CCC(=O)NC5=O)C6=O)CC4)cc3)cc2)n1 (stereo not shown) [Example 108, 5-(4-((4-(2-(4-((2-acetylpyrimidin-4-yl)methoxy)phenyl)propan-2-yl)phenoxy)methyl)piperidin-1-yl)-2-(2,6-dioxopiperidin-3-yl)isoindol-1,3-dione]
28 | 7580 | CC(C)(c1ccc(OCCCCCCCCOCCCCNc2ccc3c(c2)C(=O)N(C2CCC(=O)NC2=O)C3=O)cc1)c1ccc(OCc2ccnc(N3CCCS3(=O)=O)n2)cc1 (stereo not shown) [Example 27, 5-((4-((8-(4-(2-(4-((2-(1,1-dioxoisothiazolidin-2-yl)pyrimidin-4-yl)methoxy)phenyl)propan-2-yl)phenoxy)octyl)oxy)butyl)amino)-2-(2,6-dioxopiperidin-3-yl)isoindolin-1,3-dione]
